Source: patent US20150368617A1, “METHOD FOR FORMING ENDOTHELIAL CELLS” (Korea Advanced Institute of Science and Technology (KAIST), priority 2012, published 2015)
Entries after “also recorded” stand apart in the source; their conditions may differ.

Test system: Flk1+ MPCs
Experiment: Western blotting of signaling proteins in Flk1+ MPCs
Format: cell-based, mouse
Description: FIGS. 10A-10B. PI3-kinase/Akt signaling and MyPT-MLC signaling are involved in ROCK suppression-induced expansion of ECs. Flk1+ MPCs were incubated with indicated agents for 2 days, and analyses were performed on day 6.5. (FIG. 10A) Immunoblotting for pPTEN, PTEN, pAkt, Akt, pERK, ERK, pMyPT, MyPT, pMLC, MLC, ┌ SMA and GAPDH in Flk1+ MPCs treated with PBS (Control), Y27632 (10┌ M), VEGF-A (50 ng/ml; VA), or VA plus Y27632. The Flk1+ MPCs were cultured for 12 hrs, starved for 6 hrs with or without Y27632, and then treated with VEGF-A (50 ng/ml) for 10 min. Results from four independent trials were similar to each other. (FIG. 10B) Quantitative analyses of phosphorylations of AKT, PTEN, MyPT and MLC. Signal intensities were quantitatively evaluated using Image J software. Intensity of phosphorylated/total form of each protein in Control is regarded as 1 and relative intensities are expressed as fold. The mean of relative values from four independent experiments are represented. *p<0.01 versus Control. ^#p<0.01 versus VEGF-A. N.D represents non-detected.
Cell lysates were separated by SDS-PAGE gel and transferred to PVDF membranes for Western Blot analysis. After blocking with 5% skim milk, the membranes were first incubated with primary antibodies in blocking buffer overnight at 4┌ C, then with HRP-conjugated secondary antibodies for 1 hr at RT. The following primary antibodies were used: anti-RhoA (mouse monoclonal, Cytoskeleton Inc.), anti-ROCK1 (mouse monoclonal, Santa Cruz), anti-ROCK2 (rabbit polyclonal, Santa Cruz), anti-┌-tubulin (mouse monoclonal, Santa Cruz), anti-phospho-PTEN (Ser380/Thr382/383)(clone 44A7, Cell Signaling), anti-PTEN (clone 138G6, Cell Signaling), anti-phospho-Akt (Ser473)(clone 193H12, Cell Signaling), anti-Akt (rabbit polyclonal, Cell Signaling), anti-phospho-ERK (Thr202/Tyr204) (clone 20G11, Cell Signaling), anti-ERK (rabbit monoclonal, Cell Signaling), anti-phospho-MyPT (Thr696) (rabbit polyclonal, Cell Signaling), anti-MyPT (rabbit polyclonal, Cell Signaling), anti-phospho-MLC (Thr18/Ser19) (rabbit polyclonal, Cell Signaling), anti-MLC (rabbit polyclonal, Cell Signaling), anti-┌ SMA (rabbit polyclonal, Novus Biologicals), anti-GAPDH (rabbit polyclonal, Santa Cruz), anti-phospho-VEGFR2 (Tyr1175) (clone 19A10, Cell Signaling), and anti-VEGFR2 (clone 55B11, Cell Signaling). The secondary antibodies used were rabbit anti-mouse IgG-HRP (Santa Cruz) and goat anti-rabbit IgG-HRP (Santa Cruz). Signals were developed with enhanced chemiluminescence HRP substrate (Millipore) and detected using LAS-3000 mini (Fuji film).

[1] = Y27632 10 μM, VEGF-A 50 ng/ml for 10 min
[2] = regardless of VEGF-A stimulation

Compound: C[C@@H](N)[C@H]1CC[C@H](C(=O)Nc2ccncc2)CC1 [Y27632]
- phosphorylation of Akt (Ser473) [1]: phosphorylated
- phosphorylation of ERK [1]: but not ERK
- phosphorylation of PTEN (Ser380, Thr382 and Thr383) [1]: phosphorylated
- phosphorylation of MLC [2]: almost completely reduced; also recorded: inhibits
- phosphorylation of MyPT [2]: almost completely reduced
- protein levels of αSMA [2]: reduced
